According to publication PMC5881582 (ChemMedChem, 2017):
Where two headings read alike, the source gives them in different places.

How the values were obtained:
[1] = test system: acetylation of α-tubulin (HDAC6 substrate) in SH-SY5Y cells; assay: α-tubulin acetylation by Western blot; format: cell-based, human; conditions: 5 µM, 6 h
[2] = test system: acetylation of histones H3 and H4 in SH-SY5Y cells; assay: histone H3 and H4 acetylation by Western blot; format: cell-based, human; conditions: 5 µM; for acetylation of H3 and H4: 6 h; for time-dependent increase in acetylation of H3 and H4: 24 h
[3] = test system: acetylation of α-tubulin (HDAC6 substrate) in HT-29 cells; assay: α-tubulin acetylation by Western blot; format: cell-based, human; conditions: HT-29, 5 µM; for acetylation level of α-tubulin: 6 h; for time-dependent increase in acetylation of α-tubulin: 24 h
[4] = test system: acetylation of histones H3 and H4 in HT-29 cells; assay: histone H3 and H4 acetylation by Western blot; format: cell-based, human; conditions: HT-29, 5 µM; for time-dependent increase in acetylation of H3 and H4: 24 h
[5] = target: recombinant human HDAC1 (Homo sapiens, UniProt Q13547); assay: competitive fluorescence-based HDAC deacetylase assay, Boc-L-Lys; format: biochemical; conditions: read-out: IC50 HDAC1; mean ± SD of at least two independent experiments
recombinant human HDAC1, sequence (Q13547 whole entry): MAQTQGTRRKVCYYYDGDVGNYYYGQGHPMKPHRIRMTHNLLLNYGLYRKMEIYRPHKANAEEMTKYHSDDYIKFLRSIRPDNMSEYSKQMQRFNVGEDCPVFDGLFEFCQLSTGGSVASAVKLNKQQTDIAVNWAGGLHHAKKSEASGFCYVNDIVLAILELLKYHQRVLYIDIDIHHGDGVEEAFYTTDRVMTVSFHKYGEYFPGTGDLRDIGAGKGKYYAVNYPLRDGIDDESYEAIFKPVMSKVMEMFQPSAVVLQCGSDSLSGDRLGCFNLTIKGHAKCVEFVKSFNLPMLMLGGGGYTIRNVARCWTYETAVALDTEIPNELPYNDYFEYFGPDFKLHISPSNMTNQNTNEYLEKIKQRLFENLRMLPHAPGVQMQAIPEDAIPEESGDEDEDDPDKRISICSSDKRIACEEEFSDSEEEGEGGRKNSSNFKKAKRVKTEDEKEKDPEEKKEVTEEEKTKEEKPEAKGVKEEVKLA

[6] = test system: SH-SY5Y cells; assay: antiproliferative alamarBlue assay; conditions: n=4
[7] = target: T1, purified recombinant human HDAC8 (Homo sapiens, UniProt Q9BY41); assay: fluorescence-based HDAC8 assay, commercially available HDAC substrate; format: biochemical; conditions: for Selectivity HDAC8/HDAC1: HDAC8 IC50 divided by HDAC1 IC50; for IC50: read-out: IC50 HDAC8, mean ± SD of at least two independent experiments
T1 sequence (Q9BY41 1-377): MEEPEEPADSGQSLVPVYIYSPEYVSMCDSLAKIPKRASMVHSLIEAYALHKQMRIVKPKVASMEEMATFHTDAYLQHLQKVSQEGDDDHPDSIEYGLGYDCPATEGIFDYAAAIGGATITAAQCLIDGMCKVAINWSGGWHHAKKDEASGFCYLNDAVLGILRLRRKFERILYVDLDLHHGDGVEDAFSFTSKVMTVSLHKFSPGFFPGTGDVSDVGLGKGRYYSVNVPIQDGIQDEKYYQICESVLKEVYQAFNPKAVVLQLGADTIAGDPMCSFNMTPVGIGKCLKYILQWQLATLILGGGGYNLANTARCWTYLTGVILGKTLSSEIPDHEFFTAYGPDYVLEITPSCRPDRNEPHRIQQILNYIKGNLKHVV

[8] = target: recombinant human HDAC2 (Homo sapiens, UniProt Q92769); assay: competitive fluorescence-based HDAC deacetylase assay, Boc-L-Lys; format: biochemical; conditions: for Selectivity HDAC2/HDAC1: HDAC2 IC50 divided by HDAC1 IC50; for IC50: read-out: IC50 HDAC2, mean ± SD of at least two independent experiments
recombinant human HDAC2, sequence (Q92769 whole entry): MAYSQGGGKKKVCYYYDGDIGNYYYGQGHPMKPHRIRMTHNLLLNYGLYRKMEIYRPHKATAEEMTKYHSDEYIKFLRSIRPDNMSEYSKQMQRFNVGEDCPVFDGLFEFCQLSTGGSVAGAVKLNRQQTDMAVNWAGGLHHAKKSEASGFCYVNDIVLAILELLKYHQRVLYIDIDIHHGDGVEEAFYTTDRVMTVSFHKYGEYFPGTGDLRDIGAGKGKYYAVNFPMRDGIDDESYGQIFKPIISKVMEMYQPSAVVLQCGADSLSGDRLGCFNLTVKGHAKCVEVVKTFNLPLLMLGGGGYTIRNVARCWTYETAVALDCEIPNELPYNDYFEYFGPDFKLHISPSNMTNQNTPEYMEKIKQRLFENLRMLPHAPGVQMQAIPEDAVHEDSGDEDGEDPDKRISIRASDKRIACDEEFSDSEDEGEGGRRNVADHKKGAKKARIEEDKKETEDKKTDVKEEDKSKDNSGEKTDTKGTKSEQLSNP

[9] = target: recombinant human HDAC3 (Homo sapiens, UniProt O15379); assay: as above; format: biochemical; conditions: for Selectivity HDAC3/HDAC1: HDAC3 IC50 divided by HDAC1 IC50; for IC50: read-out: IC50 HDAC3, mean ± SD of at least two independent experiments
recombinant human HDAC3, sequence (O15379 whole entry): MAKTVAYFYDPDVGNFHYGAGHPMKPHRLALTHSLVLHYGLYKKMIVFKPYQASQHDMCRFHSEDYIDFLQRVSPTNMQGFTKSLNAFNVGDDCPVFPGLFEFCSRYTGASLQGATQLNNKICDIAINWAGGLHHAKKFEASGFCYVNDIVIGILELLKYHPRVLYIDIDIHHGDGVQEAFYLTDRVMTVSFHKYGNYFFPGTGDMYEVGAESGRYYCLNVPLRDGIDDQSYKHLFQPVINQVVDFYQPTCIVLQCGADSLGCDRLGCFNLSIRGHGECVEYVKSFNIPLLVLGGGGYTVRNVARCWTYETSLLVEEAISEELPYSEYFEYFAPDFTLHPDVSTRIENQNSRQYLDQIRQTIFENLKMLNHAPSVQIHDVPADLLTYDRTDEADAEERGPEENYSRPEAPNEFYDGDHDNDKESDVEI
recombinant human HDAC3, sequence (Q9Y618 395-489 partner limits assumed): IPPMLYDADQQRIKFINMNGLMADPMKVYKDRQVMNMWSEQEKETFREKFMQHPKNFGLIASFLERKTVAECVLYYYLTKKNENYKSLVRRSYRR

[10] = test system: HT-29 cells; assay: antiproliferative alamarBlue assay; conditions: n=4
[11] = plasma and brain concentrations after i.p. dosing; format: in vivo, Spraugue Dawley rats
[12] = test system: MCF-7 cells; assay: antiproliferative alamarBlue assay; conditions: 10 µM, NA = no inhibition at 10 µM
[13] = microsomal stability; format: in vitro ADME, human; conditions: after 30 min incubation
[14] = microsomal stability; format: in vitro ADME, rat; conditions: after 30 min incubation
[15] = read-out: EC50 SH-SY5Y 24 h, 24 h
[16] = read-out: EC50 SH-SY5Y 48 h, 48 h
[17] = read-out: EC50 HT-29 24 h, 24 h
[18] = read-out: EC50 HT-29 48 h, 48 h

| SMILES | acetylation of α-tubulin [1] | acetylation of H3 and H4 [2] | time-dependent increase in acetylation of H3 and H4 [2] | acetylation level of α-tubulin [3] | time-dependent increase in acetylation of α-tubulin [3] | acetylation level of H3 ([4]; 6 h) | time-dependent increase in acetylation of H3 and H4 [4] | IC50 [5] | EC50 [6, 15] | EC50 [6, 16] | Selectivity HDAC8/HDAC1 [7] | IC50 [7] | Selectivity HDAC2/HDAC1 [8] | IC50 [8] | Selectivity HDAC3/HDAC1 [9] | IC50 [9] | EC50 [10, 17] | EC50 [10, 18] | other results |
| --- | --- | --- | --- | --- | --- | --- | --- | --- | --- | --- | --- | --- | --- | --- | --- | --- | --- | --- | --- |
| O=C(CCCCCCC(=O)Nc1ccccc1)NO [compound 1, SAHA, reference compound] | increased the acetylation of α-tubulin | acetylation of both H3 and H4 was increased | time-dependent increase in acetylation of H3 and H4 was observed | increased the acetylation level of α-tubulin | time-dependent increase in acetylation of α-tubulin | increased the acetylation level of H3 | unable to cause any significant time-dependent increase | – | – | – | – | – | – | – | – | – | – | – | – |
| O=C(CCCCCCNCc1ccc2ccccc2c1)NO [compound 2g] | increased the acetylation of α-tubulin | acetylation of both H3 and H4 was increased | time-dependent increase in acetylation of H3 and H4 was observed | increased the acetylation level of α-tubulin | – | increased the acetylation level of H3 | time-dependent increase in acetylation of H3 and H4 was observed | 39 ± 3 nM | > 50000 nM | 1200 ± 220 nM | 8.2 | 320 ± 26 nM | 8.2 | 320 ± 13 nM | 1.7 | 68 ± 2 nM | > 50000 nM | 1100 ± 110 nM | acetylation of H4 ([4]; 6 h): significantly increase acetylation of H4 |
| O=C(CCCCCCNCc1cc2ccccc2[nH]1)NO [compound 2j] | increased the acetylation of α-tubulin | acetylation of both H3 and H4 was increased | time-dependent increase in acetylation of H3 and H4 was observed | increased the acetylation level of α-tubulin | time-dependent increase in acetylation of α-tubulin | increased the acetylation level of H3 | time-dependent increase in acetylation of H3 and H4 was observed | 61 ± 5.9 nM | > 50000 nM | 1300 ± 390 nM | 10 | 620 ± 42 nM | 4.2 | 260 ± 15 nM | 0.41 | 25 ± 2 nM | > 50000 nM | 2100 ± 170 nM | brain concentration fold above IC50 for HDAC1 ([11]; 20 min): 6.7 fold; brain concentration fold above IC50 for HDAC2 ([11]; 20 min): 1.6 fold; brain concentration fold above IC50 for HDAC3 ([11]; 20 min): 16 fold; plasma concentration fold higher than IC50 for HDAC1 ([11]; 20 min): 230 fold; plasma concentration fold higher than IC50 for HDAC2 ([11]; 20 min): 54 fold; plasma concentration fold higher than IC50 for HDAC3 ([11]; 20 min): 560 fold; plasma concentration fold higher than IC50 for HDAC8 ([11]; 20 min): 23 fold; brain concentration fold higher than the IC50 for class I HDACs ([11]; abstract): > 1.6 fold; plasma concentration fold higher than the IC50 for class I HDACs ([11]; abstract): > 23 fold; Plasma level ([11]; rat, 25 mg/kg i.p., 20 min): 3820 ± 2050 ng/mL; molar concentration in brain ([11]; rat, 25 mg/kg i.p., 20 min): 0.41 µM; molar concentration in plasma ([11]; rat, 25 mg/kg i.p., 20 min): 14 µM; rat brain level ([11]; rat, 25 mg/kg i.p., 20 min): 122 ± 21 ng/mL; Plasma level ([11]; rat, 25 mg/kg i.p., 40 min): 2100 ± 720 ng/mL; rat brain level ([11]; rat, 25 mg/kg i.p., 40 min): 107 ± 15 ng/mL; Growth inhibition percentage MCF-7 24 h [12]: 61%; percent left in HLM [13]: 12%; percent left in RLM [14]: 85% |
